Assay results as given in patent publication US20090131370A1, “Novel Nucleoside Derivatives” (METABASIS THERAPEUTICS , INC., priority 2004, published 2009).
Where two headings read alike, the source gives them in different places.

Legend:
[1] = Susceptibility to non-productive metabolism in vivo: 2′-β-C-methylinosine AUC in rat plasma and tissues; parameters: species or system male Sprague-Dawley rats; settings: male, Sprague-Dawley
Description: The susceptibility of 2′-β-C-methyladenosine, and its 2′,3′-carbonate prodrugs to non-productive metabolism was evaluated in vitro and in vivo. […] Also at the pre-specified times, blood (heparinized) was collected from the vena cava and centrifuged briefly to obtain plasma. […] The supernatant was then analysis for deaminated products and other metabolites by LC-UV as described above.

[2] = rat, in vivo
Description: Analog and Its 2′,3′-Carbonate Prodrugs The liver selectivity of an antiviral nucleoside, 2′-B-C-methyladenosine, and its 2′,3′-carbonate prodrugs was evaluated in the rat by comparing liver nucleotide concentrations to levels of a major metabolite in the plasma or to concentrations of extrahepatic nucleotides. An elevated liver selectivity index is an indication of improved liver targeting of the antiviral agent and reduced exposure to other organs that may be potential targets of toxicity.
At pre-specified times of 20 min, 1, 3, 5, 8, 16, and 24 hrs post dose, liver, heart, and thigh muscle samples (˜1 g) were harvested by freeze-clamping and homogenized in 3 volumes of ice-cold acetonitrile. Following centrifugation to clarify the homogenate, aliquots of the tissue extracts were evaporated to dryness on a Savant Speed-Vac Plus (1 hr, room temperature). The resulting dried residue was reconstituted with 100 μL of mobile phase and then analyzed for nucleotides by an LC-MS/MS method as described in Example I. In addition to solid tissue, blood was collected in heparin tubes at the pre-specified times and centrifuged to obtain plasma. The plasma samples (100 μL) were extracted with 1.5 volumes of methanol and centrifuged for 20 min at top speed on a microfuge. Plasma concentrations of a major metabolite of 2′-B-C-methyladenosine, i.e., 2′-B-C-methylinosine, were determined by LC-UV as described in Example E.
The area under the curve (AUC) to the last measurable time point was calculated by trapezoidal summation of the liver, heart, and muscle concentration-time profile of total nucleotides and NTP and of the plasma concentration-time profile of the major metabolite 2′-B-C-methylinosine. The liver selectivity index was determined by two methods: (1) dividing liver NTP AUC by heart nucleotide AUC and (2) dividing liver NTP AUC by plasma 2′-3-C-methylinosine AUC.

[3] = Susceptibility to non-productive metabolism (deamination) in vitro in rat whole blood or plasma; type: in vitro ADME
Description: The susceptibility of 2′-β-C-methyladenosine, and its 2′,3′-carbonate prodrugs to non-productive metabolism was evaluated in vitro and in vivo. […] Aliquots of the blood and plasma samples were removed periodically and extracted with perchloric acid and methanol, respectively, and then centrifuged. The acidic supernatants were neutralized with potassium carbonate and recentrifuged. […] Analysis (50 μL) was performed on an Agilent Zorbax SB-Aq column (4.6×150 mm) eluted with a gradient consisting of a mixture of Buffer A (20 mM potassium phosphate pH 6.2) and Buffer B (acetonitrile) (0-10 min, 0-10%; 10-20 min, 10-80%, 20-21 min, 80-0%; 21-30 min, 0-0%) and UV absorbance monitoring at 265 nm. The flow rate was 1.5 mL/min and the column temperature was set at 40° C. Concentrations of metabolite were determined from calibration curves prepared by spiking known amounts of standards to plasma and processing as before.

[4] = Oral bioavailability in the rat based on liver nucleotide concentrations
Description: At pre-specified times of 20 min, 1, 3, 5, 8, 16, and 24 hrs post dose, liver samples (˜1 g) were collected by freeze-clamping and homogenized in 3 volumes of ice-cold 60% acetonitrile. Following centrifugation to clarify the homogenate, aliquots of the supernatants (100 μL) were evaporated to dryness on a Savant Speed-Vac Plus (1 hr, room temperature). The resulting dried residue was reconstituted with 100 μL of mobile phase and then analyzed for nucleotides by an LC-MS/MS method as described below.
The reconstituted extracts in mobile phase A (20 mM N,N-dimethylhexylamine and 10 mM propionic acid in 20% methanol) were analyzed by LC-MS/MS (Applied Biosystems, API 4000) equipped with an Agilent 1100 binary pump and a LEAP injector. […] Where possible, the quantitative analysis of liver NMP, NDP, and NTP were calculated based on a calibration curve generated from their respective standards (0.01-30 μM).
The area under the curve (AUC) to the last measurable time point were calculated by trapezoidal summation of the liver concentration-time profile of total nucleotides and NTP. The OBAV was determined by dividing the dose-normalized AUC following oral administration by the AUC following IV dosing.

[5] = Kinetics of conversion of HepDirect-carbonate prodrugs to nucleoside monophosphates by human liver microsomes; type: in vitro ADME; settings: activation to NMP, Lineweaver-Burke plot
Description: The kinetics of activation of prodrug analogues to NMP were evaluated in the microsomal fraction of human liver.
Human liver microsomes were purchased from In Vitro Technologies. The study was performed at 2 mg/mL human liver microsomes, 100 mM KH2PO4, 10 mM glutathione, 0-250 μM compound, and 2 mM NADPH for 0-7.5 min. in an Eppendorf Thermomixer 5436 (37° C., 850 rpm). The reactions were initiated by addition of NADPH following a 2-min. preincubation. Reactions were quenched with 60% methanol at 0, 2.5, 5, and 7.5 min. The resulting extracts were clarified by centrifugation at 14,000 rpm in an Eppendorf microfuge (20 min.). The supernatants (200 μL) were evaporated under vacuum and, heat to dryness. The dried residue was reconstituted with 200 μL of water and the mixture was centrifuged for 10 min at 14,000 rpm. […] NMP was detected by using MS/MS mode (M^−/78.8) and quantified based on comparison to a standard of lamivudine monophosphate. Kinetic parameters were determined from a Lineweaver-Burke plot of the data with use of SigmaPlot 9.0 software.

[6] = system: HCV; assay: Antiviral activity in HCV-infected human liver slice assay; type: cell-based, hepatitis C virus; settings: HCV RNA in culture media
Description: The effect of various compounds on HCV replication in human liver tissue was evaluated as described below.
Liver from a brain-dead HCV antibody-positive human patient was perfused with ice-cold Viaspan (Dupont Pharmaceutical) preservation solution and received on ice in Viaspan.
Precision-cut liver slices of ˜200-250 μm thickness and […] diameter were prepared and cultured in Waymouth's cell culture medium (Gibco, Inc.) that was supplemented with 10% fetal bovine serum and 10 mL/L Fungi-Bact at 37° C., and gassed with carbogen (95% O2, 5% CO2) at 0.75 liters/min. Tissue slices were maintained in culture for 72 h. Cell culture medium containing test compound in solution was changed on a daily basis.
At appropriate times of liver slice incubation, liver slices and medium were collected for analysis of HCV RNA (tissue and medium) and nucleotide levels (NTP). All collected media and tissue slices were maintained in liquid N2 until analysis.
Medium and tissue samples were analyzed for HCV RNA levels according to published procedures (Bonacini et. al., 1999) which utilize an automated, multicycle, polymerase chain reaction (PCR)-based technique. This assay has a lower limit of detection for HCV RNA of 100 viral copies/ml. Frozen liver slices were disrupted by using a combination of ultrasound probe sonication, Branson Sonifier 450 (Branson Ultrasonics, Danbury, Conn.) and homogenization using a Dounce conical pestle in 200 μls of 10% (v/v) perchloric acid (PCA). After a 5 min centrifugation at 2,500×g, the supernatants were neutralized using 3 M KOH/3 M KHCO3 and mixed thoroughly. The neutralized samples were centrifuged at 2,500 g for 5 min and NTP levels were determined by ion exchange phase HPLC (Hewlett Packard 1050) using a Whatman Partisil 5 SAX (5 μm, 4.6×250 mm) column. Samples (50 μL) were injected onto the column in 70% 10 mM ammonium phosphate buffer and 30% 1 M ammonium phosphate buffer, both at pH 3.5 and containing 6% ethanol. Nucleoside triphosphates were eluted from the column using a linear gradient to 80% 1 M ammonium phosphate pH 3.5/6% ethanol buffer, at a flow rate of 1.25 mL/min and detected by UV absorbance (254 nm).

[7] = Conversion of Compound 31.5 to 2′-β-methyladenosine in dog (Beagle) liver S9; type: in vitro ADME; settings: Beagle liver S9, 37° C., pH 7.4
Description: (§1) The rate of Compound 31.5 conversion to nucleoside was evaluated in liver S9 obtained from rat, dog, monkey and human liver. […] The homogenate was centrifuged in a Sorvall RC-5B Refrigerated Superspeed Centrifuge (30 minutes at 10,000 g) and the resulting supernatant used in the assays. The other S9 preparations were purchased from 1n Vitro Technologies. […] Aliquots of the reaction mixture were quenched with 2 volumes of ice-cold acetonitrile/0.2% formic acid (pH 3.0) at appropriate time intervals, briefly vortexed, and then immediately placed on dry ice. After all time points were taken, the samples were centrifuged in an Eppendorf microfuge (14,000 rpm, 10 minutes). The supernatant fractions were analyzed for disappearance of prodrug (and appearance of 2′-β-methyladenosine) by reverse phase HPLC on an Agilent Zorbax SB-Aq column (511m, 4.6×150 mm). The loading mobile phase buffer (Buffer A) consisted of a 9:1 ratio (v/v) of 20 mM potassium phosphate, pH 6.2 and acetonitrile. […] The elution of reaction components was monitored at […]. Quantitation was by comparison to authentic standards prepared in liver S9 and processed in an identical fashion to the unknown samples. The rate of prodrug conversion was calculated from the linear portion of the reaction curves and expressed as nmoles converted per mg of S9 protein per minute of reaction time.

[8] = Conversion of Compound 31.5 to 2′-β-methyladenosine in monkey liver S9; type: in vitro ADME; settings: Monkey liver S9, 37° C., pH 7.4
Description: as §1

[9] = Conversion of Compound 31.5 to 2′-β-methyladenosine in human liver S9; type: in vitro ADME; settings: Human liver S9, 37° C., pH 7.4
Description: as §1

[10] = Conversion of Compound 31.5 to 2′-β-methyladenosine in rat liver S9; type: in vitro ADME; settings: Rat liver S9, 37° C., pH 7.4
Description: as §1

Compound | deaminated product 2′-B-C-methylinosine in plasma, liver, heart, and muscle tissue [1] | Heart Nucleotides AUC ([2]; male, Sprague-Dawley) | Plasma 2′-β-C-Methylinosine AUC ([2]; male, Sprague-Dawley) | deaminated product (2′-β-C-methylinosine) after incubation in rat whole blood in vitro ([3]; rat) | ORAL BIOAVAILABILITY ([4]; male, Sprague-Dawley, in vivo) [%] | Km [5] [µM] | Vmax [5] [nmol/min/mg] | Liver NTP AUC ([2]; male, Sprague-Dawley) | % decrease in viral RNA relative to untreated liver slices ([6]; 0.25 μM) [%] | % decrease in viral RNA relative to untreated liver slices ([6]; 2.5 μM) [%] | % decrease in viral RNA relative to untreated liver slices ([6]; 25 μM) [%] | % decrease in viral RNA relative to untreated liver slices ([6]; 100 μM) [%] | further results
CC1(C)C[C@@H](c2cccc(F)c2F)OP(=O)(OC[C@H]2O[C@@H](n3cnc4c(N)ncnc43)[C@]3(C)OC(=O)O[C@H]23)O1 (stereo partly drawn) [Compound 30.10, cis-5′-O-[6-(2,3-Difluorophenyl)-4,4-dimethyl-2-oxo-1,3,2-dioxaphosphorinan-2-y]-2′,3′-carbonyl-2′-C-methyl-adenosine] | no or only trace levels of the deaminated product were measurable | < 2.8 | < 7.1 | no deaminated products were detected | 21 | 44.5 | 0.12 |  |  |  |  |  | 
C[C@@]12OC(=O)O[C@@H]1[C@@H](COP1(=O)OCC[C@@H](c3ccncc3)O1)O[C@H]2n1cnc2c(N)ncnc21 (stereo partly shown) [Compound 30.1] | no or only trace levels of the deaminated product were measurable | 2.6 | < 7.1 | no deaminated products were detected |  | 64 | 0.36 | 841 |  |  |  |  | 
2′-β-C-methyladenosine [reference compound] |  |  |  |  |  |  |  |  | 0 | 83 | 94 | 92 | Liver NTP AUC [2]: 15; Plasma 2′-β-C-Methylinosine AUC [2]: 11; Plasma concentrations of the main metabolite, 2′-B-C-methylinosine [2]: detectable; concentrations of nucleotides of 2′-methyladenosine in heart and muscle tissue [2]: measurable in heart and muscle tissue; deaminated product (2′-β-C-methylinosine) after incubation in rat whole blood in vitro ([3]; rat whole blood, 37° C.): 2′-β-C-methylinosine was observed; ORAL BIOAVAILABILITY ([4]; dose-normalized liver nucleotide AUC oral / IV): < 5%; ORAL BIOAVAILABILITY ([4]; dose-normalized liver nucleotide AUC oral / IV, listed as 2′-β-C-Methyladenosine): 2%
C[C@@]12OC(=O)O[C@@H]1[C@@H](CO)O[C@H]2n1cnc2c(N)ncnc21 [Compound 31.5, 2′,3′-Carbonyl-2′-C-beta-methyl-adenosine] | 2′-B-C-methylinosine was detected in plasma, liver, heart, and muscle tissue | 23 | 25 | 2′-β-C-methylinosine was observed | 95 |  |  | 2522 | 0 | 93 | 85 | 75 | Specific activity (rate of prodrug disappearance) [7]: 2.0 ± 0.3 nmol/min/mg; Specific activity (rate of prodrug disappearance) [8]: 0.024 ± 0.003 nmol/min/mg; Specific activity (rate of prodrug disappearance) [9]: 0.03 ± 0.005 nmol/min/mg; Specific activity (rate of prodrug disappearance) [10]: 0.28 ± 0.03 nmol/min/mg
C[C@@]1(O)[C@H](O)[C@@H](COP2(=O)OCC[C@H](c3cccc(Cl)c3)O2)O[C@H]1n1ccc2c(N)ncnc21 (stereo partly drawn) [Example 16.1, 4-Amino-7-(cis-5′-O-[4-(3-chlorophenyl)-2-oxo-1,3,2-dioxaphosphorinan-2-yl]-2′-C-methyl-beta-D-ribofuranosyl)-7H-pyrrolo[2,3-d]pyrimidine] |  |  |  |  |  |  |  |  |  |  |  |  | melting point: 138 to 141 °C
